Results reported in patent publication US20200009068A1, “NANOPARTICLE FORMULATIONS FOR ENHANCED DRUG DELIVERY TO THE BLADDER” (The Johns Hopkins University, priority 2017, published 2020).

Assays:
[1] = system: RT4 cells; experiment: In vitro cytotoxicity assay (CellTiter-Glo cell viability); format: cell-based, human; settings: 72 hr, triplicate
Experimental: In vitro cytotoxicity of CDDP, oxaliplatin, PAA-CDDP NPs, PEGlow-PAA-CDDP NPs and PEGhigh-PAA-CDDP NPs was evaluated using a superficial bladder cancer cell line (RT4) in triplicate. RT4 cells were purchased from the American Type Culture Collection (ATCC, Manassas, Va.) and cultured in McCoy's 5A (Thermo Fisher Scientific, Waltham, Mass.) at 37° C. under 5% CO2. Cells were seeded in 96-well tissue-treated culture plates at a density of 5×10^3 cells in 100 μl of complete medium and cultured overnight. Then, the supernatant was removed, and a known concentration of CDDP, oxaliplatin, or CDDP NPs (100 μl) was added into the wells. After 72 hr, cell viability was measured using CellTiter-Glo Luminescent Cell Viability Assay Kit (Promega, Madison, Wis.) according to manufacturer's protocol. Acquired data was analyzed to depict sigmoidal dose-response curve with Graph Pad Prism 5 (Graph Pad Software Inc., San Diego, Calif.) using the equation log(inhibitor) vs. response-variable slope.

[2] = systemic CDDP therapy; cited from earlier work
[3] = 50 patients, intravesical CDDP for more than 4 months; cited from earlier work
[4] = system: N-methyl-N-nitrosourea (MNU) induced rat bladder carcinogenesis model; experiment: Immunohistochemical staining of bladder sections; format: in vivo; settings: CDDP study, week 15
Experimental: Fischer 344 female rats (age 7 weeks) were anesthetized with an isoflurane vaporizer and nose cone system. After complete anesthesia and preparation of the surgical area, a 20G angiocatheter (BD) was placed into the rat's urethra and the bladder was emptied of urine. MNU (1.5 mg/kg MNU dissolved in 0.30 ml of 0.9% saline, pH 6.0) was then instilled into the bladder under 45 min of continued sedation to prevent spontaneous micturition and allow absorption. In order to explore the potential for treatment to prevent recurrence, treatment was initiated from weeks 8-14. Treatment groups (n=5 per group) included CDDP and PAA-CDDP NPs dosed weekly. All formulations were delivered at a concentration of 0.7 mg/ml in 300 μl. Rats were sacrificed at week 15 for histopathologic analysis of bladder tissue. Bladders were formalin fixed, paraffin embedded, sectioned, and stained with hematoxylin-eosin for classification according to the World Health Organization/International Society of Urological Pathology consensus. Tumor staging was performed in a blinded fashion by a board certified genitourinary pathologist.
For immunohistochemical staining, high-temperature antigen retrieval (18-23 psi/126° C.) was performed by immersing the slides in Trilogy (Cell Marque, Hot Springs, Ark.). Endogenous peroxidase activity was blocked for 5 min in using Dual Endogenous Enzyme Block (Dako S2003). Primary Antibody used included KI 67 (Abcam;ab16667). Slides were stained with Impact DAB (Vector Labs, Burlingame, Calif., USA) for 3 min and counterstained with haematoxylin (Richard-Allen, Kalamazoo, Mich., USA). For each section, Ki67+, cells were counted in 10 random 400× fields.
In a MNU-induced rat bladder carcinogenesis model as described in Example 3, Fischer Rat received weekly intravesical administration of Taxotere, DTX NS, or saline, for six weeks.

[5] = Bladder uptake and retention in rats (CDDP content by AAS); format: in vivo; settings: intravesical
Experimental: Female Fischer 344 rats (age 7 weeks) were purchased from Harlan (Indianapolis, Ind.) and acclimated in the animal facility for 1 week. Before starting the experiment, rats were randomly divided into different groups (n≥5). Rats were anesthetized with an isoflurane vaporizer and nose cone system and catheterized using a 20G angiocatheter sheath. After catheterization, the bladder was voided using aspiration and/or gentle pressure on the abdomen. Then, 300 μl of CDDP solution, PAA-CDDP NPs, PEGlow-PAA-CDDP NPs, or PEGhigh-PAA-CDDP NPs (CDDP content 0.7 mg/ml) was instilled by intravesical administration. Rats were maintained under anesthesia for 1 h and then allowed to wake up. Plasma and bladder tissues were obtained at 1 and 4 h for analysis of CDDP content. Bladder tissues were dipped in PBS and gently squeezed with forceps to remove any residual fluid.
(§1) 200 μl of plasma or bladder were transferred to a clean borosilicate glass cell culture tube, and 1 ml of 22% nitric acid was added. All samples were heated to 90° C. to digest plasma proteins or bladder tissues and to extract platinum. The solution was heated until a dry yellow film was obtained. Then, 1 ml of 2.2% nitric acid added to dissolve the dried residue containing platinum. CDDP content in the solution was analyzed by AAS. The lowest limit of quantification for CDDP was 250 ng/ml (<1% of the administered dose).

[6] = CDDP levels in mouse bladder after intravesical administration; format: in vivo; settings: mice
Experimental: Female CF-1 mice (age 8 weeks) were purchased from Harlan (Indianapolis, Ind.) and acclimated in the animal facility for 4 weeks. Mice were randomly divided into different groups (n≥5). Mice were anesthetized with an isoflurane vaporizer and nose cone system and catheterized using polyethylene tubing mounted on a 30G needle. After catheterization, the bladder was emptied of urine by aspiration and/or gentle pressure on the abdomen. Then, 100 μl of CDDP solution, PAA-CDDP NPs, PEGlow-PAA-CDDP NPs or PEGhigh-PAA-CDDP NPs at 0.7 mg/ml CDDP content was instilled into the bladder by intravesical administration. Mice were maintained under anesthesia for 1 h and then allowed to wake up. To assess systemic exposure, mice were euthanized at 1, 4, and 24 h and plasma was obtained for analysis of CDDP content. To assess local toxicity of CDDP solution and CDDP NPs, mice received a total of three intravesical doses spaced one week apart. Bladder tissues were obtained 24 h after the third dose, photographed, and weighed.
as §1, with “The solution was heated until a dry yellow film was obtained. Then, 1 ml of 2.2% nitric acid added to dissolve the dried residue containing platinum.” left out

[7] = system: N-methyl-N-nitrosourea (MNU) induced rat bladder carcinogenesis model; experiment: In vivo efficacy, tumor staging by histopathology; settings: weekly intravesical dosing weeks 8-14, 0.7 mg/ml in 300 μl, sacrifice week 15
Source text: The N-methyl-N-nitrosourea (MNU) rat model of bladder cancer was chosen because it recapitulates human non-muscle invasive bladder cancer, with carcinoma in situ (CIS), non-invasive papillary carcinoma (Ta), and high grade invasive papillary carcinoma (T1) histologies, and progresses from dysplasia to NMIBC to MIBC (Steinberg G D, et al., Cancer Res, 50(20):6668-74 (1990)). This animal model progresses from dysplasia to NMIBC between about week 8 and about week […], making it a desirable time to initiate treatment and a good recapitulation of a chemopreventative treatment model. Additionally, the MNU model represents an outbred strain of NMIBC, as opposed to an inbred strain utilizing immortal clones of genetically identical tumor strains. […] Since no reliable xenograft model was believed to be present of NMIBC that progresses to MIBC in a temporal time-dependent fashion similar to human urothelial cancer, a carcinogen model was chosen to recapitulate the heterogeneity of human disease, study the antineoplastic and immunologic effects of treatment, and reflect the typical progression of non-muscle to muscle invasive cancer. In this model, the presence of NMIBC progresses from about week 8 to about week 15, at which point all rats have NMIBC.
Fischer 344 female rats (age 7 weeks) were anesthetized with an isoflurane vaporizer and nose cone system. […]

Structure (SMILES)	RT4 cells-IC50 [1]	cases with hypersensitivity reactions [2]	patients who stopped treatment early due to chemical cystitis [3] [%]	patients with anaphylactic reaction due to systemic drug absorption resulting in hypotensive shock [3] [%]	Ki67+ staining compared to untreated controls [4]	number of CD3+ cells compared to untreated controls [4]	number of CD8+ cells compared to untreated controls [4]	number of Foxp3+ cells compared to untreated controls [4]	CDDP levels in rat bladder at 4 h [5]	CDDP levels in mouse bladder at 1 h ([6]; 1 h under anesthesia)	CDDP levels in mouse bladder at 4 h ([6]; 4 h (3 h ambulatory time))	rats with T1 high grade tumors in the bladder [7] [%]
N.N.O=C([O-])C1(C(=O)[O-])CCC1.[Pt+2] [Carboplatin]	17.18 ± 0.056 μg/ml of Pt	–	–	–	–	–	–	–	–	–	–	–
N.N.[Cl][Pt][Cl] [Cisplatin, cis-diamminedichloridoplatinum (II)]	1.39 ± 0.03 μg/ml of Pt	5-20%	6	14	decreased Ki67+ staining, though statistically indistinguishable from the untreated control group	without differences	significantly lower numbers	without differences	below the level of detection	similar	below the limit of quantitation	20
